The structures appear in SMILES notation. Activity calls are given as the source filed them. No rule for the calls is given here.

For this data set, the system named is CCRIS mutagenicity, Ames/micronucleus/aberration tests. Kind of data set: CCRIS mutagenicity studies.
Where [1] appears, read: Test System: AMES SALMONELLA TYPHIMURIUM, Strain/Indicator: TA98, Metabolic Activation: NONE, Method: PREINCUBATION

Regarding `CCN(CC)CCCC(C)Nc1ccnc2cc(Cl)ccc12` (stereo not drawn), the mutagenic call by setting is: (Test System: AMES SALMONELLA TYPHIMURIUM, Strain/Indicator: TA97, Metabolic Activation: NONE, Method: STANDARD PLATE) “active; positive”; (Test System: AMES SALMONELLA TYPHIMURIUM, Strain/Indicator: TA97A, Metabolic Activation: NONE, Method: STANDARD PLATE) “inactive; negative”; (Test System: AMES SALMONELLA TYPHIMURIUM, Strain/Indicator: TA97A, Metabolic Activation: RAT LIVER S-9, PHENOBARBITAL, Method: STANDARD PLATE) “inactive; negative”; (Test System: AMES SALMONELLA TYPHIMURIUM, Strain/Indicator: TA97A, Metabolic Activation: RAT, LIVER, S-9, AROCLOR 1254, Method: STANDARD PLATE) “inactive; negative”; under setting [1], “inactive; negative”; (Test System: AMES SALMONELLA TYPHIMURIUM, Strain/Indicator: TA98, Metabolic Activation: NONE, Method: STANDARD PLATE) “active; positive”. The mutagenic call (Test System: AMES SALMONELLA TYPHIMURIUM, Strain/Indicator: TA98, Metabolic Activation: RAT, LIVER, S-9, AROCLOR 1254 OR PHENOBARBITOL, Method: STANDARD PLATE) is “active; positive”; the mutagenic call (Test System: AMES SALMONELLA TYPHIMURIUM, Strain/Indicator: TA98, Metabolic Activation: RAT, LIVER, S-9, PCB, Method: STANDARD PLATE) was “inactive; negative”; the mutagenic call (Test System: AMES SALMONELLA TYPHIMURIUM, Strain/Indicator: TA98, Metabolic Activation: RAT, LIVER, S-9, Method: PREINCUBATION) is “inactive; negative”; the mutagenic call (Test System: AMES SALMONELLA TYPHIMURIUM, Strain/Indicator: TA100, Metabolic Activation: NONE, Method: PREINCUBATION) is “inactive; negative”; the mutagenic call (Test System: AMES SALMONELLA TYPHIMURIUM, Strain/Indicator: TA100, Metabolic Activation: RAT LIVER S-9, PHENOBARBITAL, Method: STANDARD PLATE) was “inactive; negative”; the mutagenic call (Test System: AMES SALMONELLA TYPHIMURIUM, Strain/Indicator: TA100, Metabolic Activation: RAT, LIVER, S-9, AROCLOR 1254 OR PHENOBARBITOL, Method: STANDARD PLATE) was “active; positive”. Also, the mutagenic call reads like this: (Test System: AMES SALMONELLA TYPHIMURIUM, Strain/Indicator: TA100, Metabolic Activation: RAT, LIVER, S-9, PCB, Method: STANDARD PLATE) “inactive; negative”; (Test System: AMES SALMONELLA TYPHIMURIUM, Strain/Indicator: TA100, Metabolic Activation: RAT, LIVER, S-9, Method: PREINCUBATION) “inactive; negative”; (Test System: AMES SALMONELLA TYPHIMURIUM, Strain/Indicator: TA102, Metabolic Activation: NONE, Method: STANDARD PLATE) “inactive; negative”; (Test System: AMES SALMONELLA TYPHIMURIUM, Strain/Indicator: TA102, Metabolic Activation: RAT LIVER S-9, PHENOBARBITAL, Method: STANDARD PLATE) “inactive; negative”; (Test System: AMES SALMONELLA TYPHIMURIUM, Strain/Indicator: TA104, Metabolic Activation: NONE, Method: STANDARD PLATE) “inactive; negative”; (Test System: AMES SALMONELLA TYPHIMURIUM, Strain/Indicator: TA104, Metabolic Activation: RAT LIVER S-9, PHENOBARBITAL, Method: STANDARD PLATE) “inactive; negative”. Further, the mutagenic call (Test System: AMES SALMONELLA TYPHIMURIUM, Strain/Indicator: TA1535, Metabolic Activation: NONE, Method: STANDARD PLATE) was “inactive; negative”; the mutagenic call (Test System: AMES SALMONELLA TYPHIMURIUM, Strain/Indicator: TA1535, Metabolic Activation: RAT, LIVER, S-9, AROCLOR 1254 OR PHENOBARBITOL, Method: STANDARD PLATE) is “inactive; negative”; the mutagenic call (Test System: AMES SALMONELLA TYPHIMURIUM, Strain/Indicator: TA1537, Metabolic Activation: NONE, Method: MICROFLUCTUATION) is “active; positive”; the mutagenic call (Test System: AMES SALMONELLA TYPHIMURIUM, Strain/Indicator: TA1537, Metabolic Activation: NONE, Method: STANDARD PLATE) was “inactive; negative”; the mutagenic call (Test System: AMES SALMONELLA TYPHIMURIUM, Strain/Indicator: TA1537, Metabolic Activation: RAT, LIVER, S-9, AROCLOR 1254, Method: STANDARD PLATE) was “inactive; negative”; the mutagenic call (Test System: AMES SALMONELLA TYPHIMURIUM, Strain/Indicator: TA1537, Metabolic Activation: RAT, LIVER, S-9, AROCLOR 1254 OR PHENOBARBITOL, Method: STANDARD PLATE) is “inactive; negative”. Also, the mutagenic call runs as follows: (Test System: AMES SALMONELLA TYPHIMURIUM, Strain/Indicator: TA1537, Metabolic Activation: RAT, LIVER, S-9, PCB, Method: STANDARD PLATE) “inactive; negative”; (Test System: AMES SALMONELLA TYPHIMURIUM, Strain/Indicator: TA1538, Metabolic Activation: NONE, Method: STANDARD PLATE) “inactive; negative”; (Test System: AMES SALMONELLA TYPHIMURIUM, Strain/Indicator: TA1538, Metabolic Activation: RAT, LIVER, S-9, AROCLOR OR PHENOBARBITOL, Method: STANDARD PLATE) “inactive; negative”; (Test System: AMES SALMONELLA TYPHIMURIUM, Strain/Indicator: TA1538, Metabolic Activation: RAT, LIVER, S-9, PCB, Method: STANDARD PLATE) “inactive; negative”; (Test System: AMES SALMONELLA TYPHIMURIUM, Strain/Indicator: TA1977, Metabolic Activation: NONE, Method: MICROFLUCTUATION) “inactive; negative”; (Test System: E. COLI, Strain/Indicator: DG1669, Metabolic Activation: NONE, Method: STANDARD PLATE) “active; positive”. For the same molecule, the mutagenic call (Test System: E. COLI, Strain/Indicator: DG1669, Metabolic Activation: RAT, LIVER, S-9, AROCLOR 1254, Method: STANDARD PLATE) is “active; positive” and the mutagenic call (Test System: E. COLI, Strain/Indicator: WP2 UVRA, Metabolic Activation: RAT, LIVER, S-9, PCB, Method: STANDARD PLATE) is “inactive; negative”.
Consider `C[N+](C)(C)NCCC(=O)[O-]`, for which the mutagenic call was “inactive; negative” (Test System: AMES SALMONELLA TYPHIMURIUM, Strain/Indicator: TA98, Metabolic Activation: NONE); “inactive; negative” (Test System: AMES SALMONELLA TYPHIMURIUM, Strain/Indicator: TA98, Metabolic Activation: RAT LIVER S-9, AROCLOR 1254); “inactive; negative” (Test System: AMES SALMONELLA TYPHIMURIUM, Strain/Indicator: TA100, Metabolic Activation: NONE); “inactive; negative” (Test System: AMES SALMONELLA TYPHIMURIUM, Strain/Indicator: TA100, Metabolic Activation: RAT LIVER S-9, AROCLOR 1254).
`O=[N+]([O-])c1cccc2nc3c([N+](=O)[O-])cccc3nc12`: the mutagenic call by setting is: (Test System: AMES SALMONELLA TYPHIMURIUM, Strain/Indicator: TA98(NR), Metabolic Activation: NONE, Method: PREINCUBATION) “inactive; negative”; under setting [1], “inactive; negative”.

The values above are taken from PubChem BioAssay AID1259407 (Chemical Carcinogenesis Research Information System (CCRIS), 2018).
